From US20250127787A1, “METHODS FOR TREATING PERIPHERAL NEUROPATHY” (University of Pittsburgh - Of the Commonwealth System of …, priority 2021, published 2025)
“Also recorded” adds a separate entry of the source.

Assays:
mitofusin 2 (MFN2) = assay: MFN2 expression in CYP-CIPN rat hindpaw epidermis, Western immunoblotting; format: in vivo; details: 8-AG 5 mg/kg/day in drinking water
Experimental: (§1) Animals. This study employed female Harlan Sprague Dawley (HSD) rats (3-4 mo; Envigo, Indianapolis, IN) and were divided into the following groups: 1) Control, 2) Cyclophosphamide (CYP, 75 mg/kg i.p. in saline vehicle; administered on days 0, 3 and 6); 3) 8-aminoguanine (8-AG; 5 mg/kg/day in drinking water; beginning 2 weeks prior to CYP and continuing until sacrifice (day 8)). The dose of 8-AG is based on our preliminary and published experiments. […] The investigation conforms to the Guide for the Care and Use of Laboratory Animals published by the US National Institutes of Health (NIH Publication No. 85-23, revised 1996). […]
(§2) Western immunoblotting: Following the testing paradigms, rats were deeply anesthetized and tissues (e.g., epidermis, peripheral sciatic nerves, spinal cord segments (L3-L5) and dorsal root ganglia (L3-L5) were removed, and a portion of each preparation was homogenized using Lysing Matrix D in a FASTPREP® 24 instrument (MP Biomedicals, Solon, OH) in HBSS [5 mM KCl, 0.3 mM KH2PO4, 138 mM NaCl, 4 mM NaHO3, 0.3 mM Na2HCO3, 0.3 mM Na2HPO4, 5.6 mM glucose and 10 mM Hepes, pH 7.4 containing complete protease inhibitor cocktail (1 tablet/10 ml, Roche, Indianapolis, IN)] and phosphatase inhibitor cocktail (Sigma, 1:100). […] The protein concentrations of the supernatants were determined using the Pierce BCA protein assay (Thermo Scientific, Rockford, IL). […]

IBA-1 = assay: Microglial IBA-1 expression and activation in CYP-CIPN rats; format: in vivo, rat; details: oral 8-AG; for effect on CYP-induced increase in IBA-1 expression (microglia): Western immunoblotting
Experimental: (§3) Animals: This study employed female Harlan Sprague Dawley (HSD) rats (3-4 mo; Envigo, Indianapolis, IN) and were divided into the following groups: 1) Control, 2) Cyclophosphamide (CYP, 75 mg/kg i.p. in saline vehicle; administered on days 0, 3 and 6 until sacrifice on day 8); 4) Paclitaxel (2 mg/kg i.p., 2 mg/kg i.p. in saline from a stock solution of 50/50 CremophorEL/ethanol); administered on days 0, 2, 4 and 6 until sacrifice on day 8; 4) 8-aminoguanine (8-AG; 5 mg/kg/day in drinking water; beginning 2 weeks prior to either CYP or PAC and continuing until sacrifice (day 8)). The dose of 8-AG was based on the experiments described above. […] All tissues (spinal cord and hindpaw epidermis) were removed from isoflurane anesthetized rats and the tissue was used for various experimental approaches as described below. At the end of tissue removal, animals were sacrificed by thoracotomy.
Thus, the effectiveness of 8-aminoguanine in CYP—CIPN microglial expression and activation was evaluated.

PAC-CIPN rats = assay: Von Frey sensory testing in PAC-CIPN rats; format: in vivo, rat; details: hindpaw footpad, paclitaxel 2 mg/kg i.p., 8-AG 5 mg/kg/day in drinking water
Experimental: as §3
Von Frey sensory testing, Control, PAC and 8-AG-treated PAC rats were placed in an elevated chamber on a wire mesh floor and after acclimatization, calibrated von Frey microfilaments were applied to determine paw withdrawal threshold (PWT, in grams). Briefly, microfilaments (Stoelting Corp, USA) were applied with different forces perpendicularly to the plantar surface of both ipsilateral and contralateral hindpaw by increasing and decreasing stimulus intensity. […]

[1] = tested on: superoxide dismutase (SOD1); assay: SOD1 expression in CYP-CIPN rat peripheral (sciatic) nerves, Western immunoblotting; format: in vivo; details: 8-AG 5 mg/kg/day in drinking water from 2 weeks prior to CYP
Experimental: as §1, §2

Nc1nc2[nH]c(N)nc2c(=O)[nH]1 [8-AG, 8-Aminoguanine]
effect on CYP-induced decrease in MFN2 expression (mitofusin 2 (MFN2)): reversed | effect on CYP-induced increase in IBA-1 expression (microglia) (IBA-1): normalized | effect on CYP-induced increase in IBA-1 expression (microglia) (IBA-1; listed as 8-aminoguanine): reversed; also recorded: normalized | effect on CYP-induced increase in spinal IBA-1 activation (IBA-1; measured by densitometry): normalized | effect on PAC-induced increase in sensitivity to mechanical stimuli (paw withdrawal threshold) (PAC-CIPN rats): restored to control values; also recorded: normalized | effect on CYP-induced decrease in SOD1 expression [1]: normalized; also recorded: prevented
